Results published in patent US6638933B2, “Bicyclic imidazo-3-yl-amine derivatives” (Gruenenthal GmbH, priority 1999, dated 2003).

System: phenylquinone-induced writhing in mice
Experiment: Analgesia test in the writhing test in mice (phenylquinone-induced writhing)
Assay type: in vivo
Settings: male NMRI mice, phenylquinone i.p. ten minutes after substance
Experimental: Analgesia Test in the Writhing Test in Mice
The analgesic activity was investigated in the phenylquinone-induced writhing in mice (modified according to I. C. Hendershot, J. Forsaith, J. Pharmacol. Exp. Ther. 125, 237-240 (1959)). Male NMRI mice weighing 25-30 g were used. Groups of 10 animals per substance dose received 0.3 ml/mouse of a 0.02% aqueous solution of phenylquinone (phenylbenzoquinone, Sigma, Deisenhofen; solution prepared with the addition of 5% ethanol and storage in a water-bath at 45° C.) administered intraperitoneally ten minutes after intravenous or subcutaneous administration of the test substances. The animals were placed individually in observation cages. The number of pain-induced extension movements (so-called writhing reactions=straightening of the body with stretching out of the hind extremities) 5-20 minutes after administration of the phenylquinone was counted by means of a push-button counter. Animals which receive only physiological saline solution were also run as a control. The substances were tested in the standard dosage of 10 mg/kg intravenously or 21.5 mg/kg subcutaneously. The percentage inhibition (% inhibition) of the writhing reaction by a substance was calculated in accordance with the following equation: [formula]

Row | Compound | % inhibition of the writhing reaction at 10 mg/kg intravenously (writhing counted 5-20 minutes) | also measured
1 | CC(C)(C)Nc1c(-c2ccccn2)nc2ccccn12 [Example 22, tert-Butyl-(2-pyridin-2-yl-imidazo[1,2-a]pyridin-3-yl)-amine] | 53% | 
2 | CC(C)(C)Nc1c(-c2cccs2)nc2ccccn12 [Example 23, tert-Butyl-(2-thiophen-2-yl-imidazo[1,2-a]pyridin-3-yl)-amine] | 62% | 
3 | c1coc(-c2nc3ccccn3c2NC2CCCCC2)c1 [Example 20, Cyclohexyl-(2-furan-2-yl-imidazo[1,2-a]pyridin-3-yl)-amine] | 43% | 
4 | CC(C)(C)Nc1c(C(C)(C)C)nc2ccccn12 [Example 13, tert-Butyl-(2-tert-butyl-imidazo[1,2-a]pyridin-3-yl)-amine] |  | % inhibition of the writhing reaction, intravenously, at 2.15 mg/kg (2.15 mg/kg (stated in cell) in the intravenous column): 86 at 2.15 mg/kg %
5 | CCOP(=O)(CNc1c(-c2ccccc2)nc2ccccn12)OCC [Example 12, [(2-Phenyl-imidazo[1,2-a]pyridin-3-ylamino)-methyl]-phosphonic acid diethyl ester] | 90% | 
6 | Cc1nc2ccccn2c1NC1CCCCC1 [Example 24, Cyclohexyl-(2-methyl-imidazo[1,2-a]pyridin-3-yl)-amine] | 56% | 
7 | CC(C)(C)Nc1c(-c2cccnc2)nc2ccccn12 [Example 21, tert-Butyl-(2-pyridin-3-yl-imidazo[1,2-a]pyridin-3-yl)-amine] |  | % inhibition of the writhing reaction at 21.5 mg/kg subcutaneously (21.5 mg/kg subcutaneously, writhing counted 5-20 minutes): 80%
